Assay results from patent publication US20250123280A1, “LABEL-FREE DETECTION OF PROTEASE ACTIVITY” (OREGON HEALTH & SCIENCE UNIVERSITY, priority 2021, published 2025).
Where “and” joins values, the source holds several entries; their conditions need not be identical. Equal values may be shown once. Peptide text beside a SMILES is read from it. * marks the point of attachment. Fmoc = O=C(OCC1c2ccccc2-c2ccccc21)*

Experiments:
[1] = CD time-course of structures formed by peptide 1 with legumain; assay type: physicochemical; settings: after two weeks with legumain, 37° C.
Method: A time-course study of the legumain assay was also run. Peptide 1 was dissolved at 0.333 mg/mL in low far-UV absorbance CD buffer, pH 5.5-6. Legumain was activated for abut 2 hours at 37° C. in far-UV absorbance CD buffer, pH 4. Spectra were acquired from 260-190 nm with 1.0 nm band-width, 20 nm/min scan speed, and 2 sec integration time. A 5 minute acquisition cycle was automatically run 26 times, followed by manual acquisitions at 28 hours, 53 hours, 78 hours, and 14 days. The temperature was maintained at 37° C. throughout. Legumain (333 ng/mL) was mixed with peptide 1 just prior to acquisition of the second spectrum (the 0 min time point). All spectra were subsequently background subtracted and then smoothed using a Savitsky-Golay filter. Data are presented in units of molar circular dichroism, Δε(M^−1 cm^−1).

legumain = molecular target: T1, legumain (Mus musculus, UniProt O89017); test: Legumain assay with peptide 1 and Thioflavin T in buffer; assay type: biochemical
T1 construct: purchased Novus Biologicals
T1 sequence (O89017 18-325 limits assumed): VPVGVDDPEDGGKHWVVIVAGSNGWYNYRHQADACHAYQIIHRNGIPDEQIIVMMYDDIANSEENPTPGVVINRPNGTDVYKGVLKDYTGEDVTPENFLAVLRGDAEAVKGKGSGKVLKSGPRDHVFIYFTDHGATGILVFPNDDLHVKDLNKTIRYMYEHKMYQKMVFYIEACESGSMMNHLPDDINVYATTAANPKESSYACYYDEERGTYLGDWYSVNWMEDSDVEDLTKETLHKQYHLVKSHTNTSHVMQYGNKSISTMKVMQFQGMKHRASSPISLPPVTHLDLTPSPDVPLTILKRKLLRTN
Method: Legumain activation. To activate legumain, 5 μL of prolegumain solution (0.5 mg/mL in Tris buffer containing 10% glycerol) was mixed with 20 μL of activation buffer (50 mM Sodium Acetate, 100 mM NaCl, pH 4.0) and incubated at 37° C. for 2 h. It was then diluted in 225 μL of legumain assay buffer (50 mM MES, 250 mM NaCl, pH 5) to give a final legumain concentration of 10 μg/mL and immediately used in the assay.
Legumain assay. In a typical assay, peptide 1 was first dissolved in ultrapure water containing 25% DMSO at a peptide concentration of 10 mg/mL. It was then diluted in phosphate-buffered saline (PBS, pH 7.4, 10 mM) to give a peptide concentration of 2 mg/mL. Next, 50 μL of the peptide solution was mixed with 50 μL of MES buffer (50 mM MES, 250 mM NaCl, pH 5) containing activated legumain at different concentrations (0-2000 ng/mL) in a 96 well plate and the plate was incubated at 37° C. for 2 h. Note that the final peptide concentration was 1 mg/mL and final legumain concentrations were between 0 and 1000 ng/mL. Finally, 10 μL of ThT solution (1 mM, in ultrapure water) was added to each well, and ThT fluorescence was measured using a Spark 20M microplate reader (Tecan) after 15-30 min incubation at room temperature.
In the peptide concentration experiment, appropriate amounts of peptide 1 stock solution (10 mg/mL) were diluted in PBS and mixed with the MES buffer containing legumain, as described above, to give the final peptide concentrations between 0.05 and 1 mg/mL in the assay. In kinetic studies, ThT solution was mixed with the peptide immediately before the addition of activated legumain, and the plate was incubated in a Spark 20M microplate reader (Tecan) at 37° C. for 3 hours, and ThT fluorescence was recorded every 4 minutes. For the inhibitor experiment, the legumain inhibitor, RR-11a, was first dissolved in DMSO (1 mM), and appropriate amounts of inhibitor were incubated with legumain for about 1.0 hour at room temperature in 96 well plates. Finally, the legumain solutions incubated with different amounts of inhibitor were mixed with the peptide 1 solution, and the assay was performed as described above. For the experiments in plasma, 10 μL or 20 μL of PBS in the wells were replaced with human plasma to achieve final plasma concentrations of 10% and 20%, respectively.

## C[C@H](NC(=O)[C@H](C)NC(=O)[C@H](CCC(=O)O)NC(=O)[C@H](Cc1ccccc1)NC(=O)[C@H](CCCCN)NC(=O)[C@H](Cc1ccccc1)NC(=O)OCC1c2ccccc2-c2ccccc21)C(=O)N[C@@H](CC(N)=O)C(=O)NCC(=O)N[C@@H](CCC(=O)O)C(=O)N[C@@H](CCC(=O)O)C(=O)NCC(=O)N[C@@H](CO)C(=O)NCC(=O)N[C@@H](CCC(=O)O)C(=O)N[C@@H](CCC(=O)O)C(=O)O [peptide 1] (Fmoc-FKFEAANGEEGSGEE-OH; C-terminus assumed)
[1]
  stability of the formed structures (CD spectrum): long-term stability
legumain; 1000 ng/mL legumain
  fluorescence intensity at 24 hours compared with the intensity at two hours: about 2.5
legumain; 1000 ng/mL legumain, about two hours, peptide 1 1 mg/mL, ThT 90 μM
  enhancement in the ThT emission intensity: about 32 fold
legumain; 1 mg/mL peptide concentration, legumain 500 ng/mL
  enhancement in ThT emission: 28 fold
legumain; legumain 10.0 ng/mL, about two hours, ThT 90 μM
  fluorescence enhancement: about 1.3 fold
legumain; legumain 25.0 ng/mL, about two hours, ThT 90 μM
  fluorescence enhancement: about 3 fold
legumain; legumain, buffer
  limit of detection (LOD): about 12 ng/mL and 0.21 nM
  limit of quantification (LOQ): about 25 ng/mL and 0.45 nM
legumain; no legumain, up to the highest peptide concentration (1.0 mg/mL)
  enhancement in the ThT fluorescence in the absence of legumain: no significant enhancement
legumain; peptide 1 1.0 mg/mL, ThT 90 μM, no legumain
  enhancement in the ThT emission: 1.4 fold
legumain; peptide concentration below 0.25 mg/mL, legumain 500 ng/mL
  ThT emission intensity increase: 1.3-1.4 fold
